ChEMBL document CHEMBL4725338, “Discovery of novel histone lysine methyltransferase G9a/GLP (EHMT2/1) inhibitors: Design, synthesis, and structure-activity relationships of 2,4-diamino-6-methylpyrimidines” (Bioorg Med Chem Lett, 2020)
Values after ≈ are worked out from the molar mass of the structure shown. Active and inactive are the calls of the source. The calls are words filed in the database; no cut-off is given here.

Assays:
[1] = molecular target: T1, Histone-lysine N-methyltransferase EHMT2 (Homo sapiens, UniProt Q96KQ7); experiment: Inhibition G9a (unknown origin)
T1 sequence (Q96KQ7 whole entry): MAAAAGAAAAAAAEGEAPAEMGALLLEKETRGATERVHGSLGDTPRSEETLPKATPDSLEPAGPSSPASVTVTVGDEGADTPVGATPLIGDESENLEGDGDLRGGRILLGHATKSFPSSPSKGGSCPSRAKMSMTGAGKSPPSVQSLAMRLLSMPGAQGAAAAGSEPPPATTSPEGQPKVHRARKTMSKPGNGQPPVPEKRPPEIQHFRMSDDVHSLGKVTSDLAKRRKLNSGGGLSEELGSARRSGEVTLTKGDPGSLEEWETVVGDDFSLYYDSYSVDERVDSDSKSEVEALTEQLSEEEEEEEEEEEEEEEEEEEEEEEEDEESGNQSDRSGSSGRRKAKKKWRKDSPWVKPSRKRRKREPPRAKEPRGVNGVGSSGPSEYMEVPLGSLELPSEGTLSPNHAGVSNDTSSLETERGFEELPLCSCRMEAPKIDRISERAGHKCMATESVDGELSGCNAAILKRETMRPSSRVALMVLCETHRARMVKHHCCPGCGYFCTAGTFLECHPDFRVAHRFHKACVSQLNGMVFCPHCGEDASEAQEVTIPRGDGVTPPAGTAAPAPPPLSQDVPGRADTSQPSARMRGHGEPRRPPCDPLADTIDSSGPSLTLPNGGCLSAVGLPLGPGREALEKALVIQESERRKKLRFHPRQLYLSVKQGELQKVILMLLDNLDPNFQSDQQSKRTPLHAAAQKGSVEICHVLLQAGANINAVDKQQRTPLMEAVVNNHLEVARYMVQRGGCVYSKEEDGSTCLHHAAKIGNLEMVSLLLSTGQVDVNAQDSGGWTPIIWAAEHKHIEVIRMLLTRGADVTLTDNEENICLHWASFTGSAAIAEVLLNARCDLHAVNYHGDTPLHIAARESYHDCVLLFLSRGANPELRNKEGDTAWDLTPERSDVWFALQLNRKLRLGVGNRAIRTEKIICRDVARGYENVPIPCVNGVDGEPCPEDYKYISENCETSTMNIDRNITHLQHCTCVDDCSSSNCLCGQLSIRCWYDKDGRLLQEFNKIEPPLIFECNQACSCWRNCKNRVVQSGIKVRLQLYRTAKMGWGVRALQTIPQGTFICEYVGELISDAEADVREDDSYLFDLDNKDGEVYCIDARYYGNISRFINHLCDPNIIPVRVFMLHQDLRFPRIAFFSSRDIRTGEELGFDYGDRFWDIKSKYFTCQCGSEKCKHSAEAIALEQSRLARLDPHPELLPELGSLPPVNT

[2] = molecular target: T2, Histone-lysine N-methyltransferase EHMT1 (Homo sapiens, UniProt Q9H9B1); experiment: Inhibition of GLP (unknown origin)
T2 sequence (Q9H9B1 whole entry): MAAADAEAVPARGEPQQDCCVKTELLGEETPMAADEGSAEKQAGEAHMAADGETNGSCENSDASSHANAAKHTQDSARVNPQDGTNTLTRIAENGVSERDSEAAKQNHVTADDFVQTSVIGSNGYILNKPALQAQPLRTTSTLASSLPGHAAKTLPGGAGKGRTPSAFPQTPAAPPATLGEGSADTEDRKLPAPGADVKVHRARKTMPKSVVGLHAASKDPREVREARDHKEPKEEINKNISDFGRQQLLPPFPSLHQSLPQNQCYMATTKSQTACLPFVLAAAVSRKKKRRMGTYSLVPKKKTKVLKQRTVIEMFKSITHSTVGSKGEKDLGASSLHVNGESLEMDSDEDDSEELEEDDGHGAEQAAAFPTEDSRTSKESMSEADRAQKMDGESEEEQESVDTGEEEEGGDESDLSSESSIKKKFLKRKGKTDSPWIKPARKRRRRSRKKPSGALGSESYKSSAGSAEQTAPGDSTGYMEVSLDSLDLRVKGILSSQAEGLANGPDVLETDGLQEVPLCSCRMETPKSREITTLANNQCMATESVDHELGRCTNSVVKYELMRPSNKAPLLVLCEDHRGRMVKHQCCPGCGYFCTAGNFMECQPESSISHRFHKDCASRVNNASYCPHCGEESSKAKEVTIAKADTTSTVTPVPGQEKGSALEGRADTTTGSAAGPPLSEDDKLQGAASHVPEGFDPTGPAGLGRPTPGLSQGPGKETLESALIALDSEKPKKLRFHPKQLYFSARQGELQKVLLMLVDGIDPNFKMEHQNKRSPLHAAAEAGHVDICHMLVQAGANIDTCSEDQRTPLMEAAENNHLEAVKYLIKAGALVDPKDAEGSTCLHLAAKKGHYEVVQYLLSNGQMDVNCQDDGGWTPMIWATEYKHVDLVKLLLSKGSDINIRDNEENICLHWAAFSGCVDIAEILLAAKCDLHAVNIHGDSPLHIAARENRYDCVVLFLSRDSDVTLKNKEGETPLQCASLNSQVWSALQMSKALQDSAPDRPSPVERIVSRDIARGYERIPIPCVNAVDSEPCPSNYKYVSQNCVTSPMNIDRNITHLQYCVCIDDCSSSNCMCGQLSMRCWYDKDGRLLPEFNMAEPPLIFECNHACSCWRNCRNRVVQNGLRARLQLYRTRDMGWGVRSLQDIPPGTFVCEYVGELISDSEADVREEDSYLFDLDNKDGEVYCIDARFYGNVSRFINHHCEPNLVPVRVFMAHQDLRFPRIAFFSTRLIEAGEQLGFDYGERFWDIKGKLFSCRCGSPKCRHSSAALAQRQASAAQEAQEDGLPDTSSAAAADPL

[3] = tested on: CD34-positive (myeloid/lymphoid) cell; experiment: Inhibition of G9a methyltransferase activity in human CD34+ cells assessed as induction of fetal type gamma globin at 1 uM in presence of erythropoietin measured after 21 days by staining based method; format: functional; details: time 21.0 day
[4] = Lipophilicity, log D of compound; format: physicochemical; details: octanol/water
[5] = Apparent permeability in MDCK cells; format: ADME, cell-based, Canis lupus familiaris; details: dog
[6] = Aqueous solubility of the compound in pH 1.2 JP1 fluid; format: physicochemical
[7] = Aqueous solubility of the compound in pH 6.8 JP2 fluid; format: physicochemical
[8] = Metabolic stability in mouse liver microsomes assessed as compound remaining at 0.5 mg/mL incubated for 0.5 hrs; format: ADME, Microsome; details: read-out: Stabilty
[9] = Metabolic stability in monkey liver microsomes assessed as compound remaining at 0.5 mg/mL incubated for 0.5 hrs; format: ADME, Macaca mulatta, Microsome; details: rhesus monkey, read-out: Stabilty
[10] = Metabolic stability in human liver microsomes assessed as compound remaining at 0.5 mg/mL incubated for 0.5 hrs; format: ADME, Microsome; details: read-out: Stabilty
[11] = Cmax in mouse at 10 mg/kg, po; format: ADME, organism-based; parameters: route oral, dose 10 mg/kg; details: in vivo
hERG (KCNH2) = hERG (KCNH2) (Homo sapiens, UniProt Q12809); experiment: Inhibition of human ERG at 10 uM relative to control
hERG (KCNH2), sequence (Q12809 whole entry): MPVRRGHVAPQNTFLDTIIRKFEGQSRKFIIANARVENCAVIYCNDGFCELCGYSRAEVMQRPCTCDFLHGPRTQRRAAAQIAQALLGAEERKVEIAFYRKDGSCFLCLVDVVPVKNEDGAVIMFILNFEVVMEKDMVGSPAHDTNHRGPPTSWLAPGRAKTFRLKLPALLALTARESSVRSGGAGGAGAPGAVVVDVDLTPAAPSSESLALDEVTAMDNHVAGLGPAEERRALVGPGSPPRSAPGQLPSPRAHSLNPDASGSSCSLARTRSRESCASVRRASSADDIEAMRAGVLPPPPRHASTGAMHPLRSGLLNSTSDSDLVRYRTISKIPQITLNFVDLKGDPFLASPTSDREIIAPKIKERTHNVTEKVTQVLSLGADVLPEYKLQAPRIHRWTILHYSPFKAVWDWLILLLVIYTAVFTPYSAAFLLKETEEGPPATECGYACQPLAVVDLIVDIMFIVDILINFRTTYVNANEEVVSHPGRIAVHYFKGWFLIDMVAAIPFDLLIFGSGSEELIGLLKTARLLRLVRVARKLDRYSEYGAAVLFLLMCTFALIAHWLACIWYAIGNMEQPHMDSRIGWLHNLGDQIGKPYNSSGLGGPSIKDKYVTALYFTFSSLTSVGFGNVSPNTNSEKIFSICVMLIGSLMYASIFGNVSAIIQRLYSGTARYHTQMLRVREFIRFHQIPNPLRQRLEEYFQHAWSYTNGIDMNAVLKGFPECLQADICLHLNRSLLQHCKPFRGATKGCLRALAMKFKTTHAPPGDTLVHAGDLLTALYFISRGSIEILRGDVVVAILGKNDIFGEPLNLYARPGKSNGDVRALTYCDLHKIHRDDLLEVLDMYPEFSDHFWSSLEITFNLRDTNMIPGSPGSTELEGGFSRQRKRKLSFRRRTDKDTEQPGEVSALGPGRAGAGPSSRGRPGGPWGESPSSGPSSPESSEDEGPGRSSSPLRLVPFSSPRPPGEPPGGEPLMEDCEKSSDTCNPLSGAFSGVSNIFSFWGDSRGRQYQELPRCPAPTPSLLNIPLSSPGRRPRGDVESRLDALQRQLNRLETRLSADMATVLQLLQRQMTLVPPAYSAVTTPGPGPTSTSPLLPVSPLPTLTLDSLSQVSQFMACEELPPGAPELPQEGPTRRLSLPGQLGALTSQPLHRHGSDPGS

CYP3A4 = CYP3A4 (Homo sapiens, UniProt P08684); experiment: Mechanism based inhibition of CYP3A4 in human liver microsome assessed as remaining percentage at 100 uM in presence of substrate ACN preincubated 30 mins followed by substrate addition relative to control; format: ADME; details: liver microsomes, probe ACN (so in the source), read-out: Activity
CYP3A4, sequence (P08684 whole entry): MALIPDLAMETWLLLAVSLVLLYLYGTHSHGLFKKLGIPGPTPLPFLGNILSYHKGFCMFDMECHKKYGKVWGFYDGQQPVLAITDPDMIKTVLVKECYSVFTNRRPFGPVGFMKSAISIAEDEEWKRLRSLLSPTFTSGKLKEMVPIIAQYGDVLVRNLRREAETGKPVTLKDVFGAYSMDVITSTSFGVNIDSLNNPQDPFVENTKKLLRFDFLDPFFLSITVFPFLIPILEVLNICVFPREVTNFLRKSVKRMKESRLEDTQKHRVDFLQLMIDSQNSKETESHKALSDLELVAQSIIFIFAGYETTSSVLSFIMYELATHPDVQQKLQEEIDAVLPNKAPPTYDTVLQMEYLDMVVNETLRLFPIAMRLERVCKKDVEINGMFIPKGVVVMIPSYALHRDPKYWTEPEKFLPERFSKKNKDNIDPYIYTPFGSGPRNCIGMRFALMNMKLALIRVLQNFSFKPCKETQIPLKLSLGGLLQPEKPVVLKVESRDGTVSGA

[12] = AUC (0 to infinity) in mouse at 10 mg/kg, po; format: ADME, organism-based; parameters: time infinity, route oral, dose 10 mg/kg; details: in vivo
[13] = Tmax in mouse at 10 mg/kg, po; format: ADME, organism-based; details: in vivo
[14] = Oral bioavailability in mouse at 10 mg/kg; format: ADME, organism-based; details: in vivo
[15] = Initial plasma concentration in mouse at 1 mg/kg, iv; format: ADME, organism-based
[16] = AUC (0 to infinity) in mouse at 1 mg/kg, iv; format: ADME, organism-based; parameters: time infinity, route intravenous, dose 1 mg/kg; details: in vivo
[17] = Half-life in mouse at 1 mg/kg, iv; format: ADME, organism-based; details: in vivo
[18] = Volume of distribution at steady state in mouse at 1 mg/kg, iv; format: ADME, organism-based; details: in vivo, read-out: Vdss
[19] = Intrinsic clearance in mouse at 1 mg/kg, iv; format: ADME, organism-based; details: in vivo
[20] = tested on: CD34-positive (myeloid/lymphoid) cell; experiment: Induction of fetal globin in human CD34+ cells assessed as switching of mRAN expression from adult beta-globin to fetal type gamma globin at 0.3 to 1 uM by qRT-PCR analysis; format: functional, cell-based

| Structure (SMILES) | IC50 [1] | IC50 [2] | further results |
| --- | --- | --- | --- |
| CNc1cc(C)nc(Nc2ccc(OC)c(C3=CCCN(C)C3)c2)n1 | 451 nM | 864 nM |  |
| CNc1cc(C)nc(Nc2ccc(C#N)c(C3=CCNCCC3)c2)n1 | 15.2 nM | 43.2 nM |  |
| COc1cc2c(NC3CCN(C(C)C)CC3)nc(C3CCCCC3)nc2cc1OCCCN1CCCC1 |  |  | Activity [3]: Active |
| CNc1cc(C)nc(Nc2ccc(OC)c(C3=CCN(C)CCC3)c2)n1 |  | 74.1 nM | logD [4]: 1.3; Papp [5]: 8.4 ×10⁻⁶ cm/s; solubility [6]: 710 µg/mL (≈ 2010 µM); solubility [7]: 360 µg/mL (≈ 1020 µM); remaining at 0.5 h [8]: 23%; remaining at 0.5 h [9]: 2%; remaining at 0.5 h [10]: 76%; Cmax [11]: 210 nM; inhibition at 10 µM (hERG (KCNH2)): 17%; activity at 30 min, 100 µM (CYP3A4): 87.3%; AUC(0-inf) [12]: 3.14 µM·h; Tmax [13]: 0.63 h; bioavailability [14]: 26%; C0 [15]: 220 nM; AUC(0-inf) [16]: 1.2 µM·h; half-life [17]: 5.6 h; Vd [18]: 14.9 L/kg; CL [19]: 38.7 mL/min/kg |
| CNc1cc(C)nc(Nc2ccc(OC(F)(F)F)c(C3=CCNCCC3)c2)n1 | 853 nM | 3800 nM |  |
| CNc1cc(C)nc(Nc2ccc(OC)c(C3=CCN(CCO)CCC3)c2)n1 | 213 nM | 1590 nM |  |
| CNc1cc(C)nc(Nc2ccc(Cl)c(C3=CCNCCC3)c2)n1 | 6.32 nM | 27.1 nM |  |
| CNc1cc(C)nc(Nc2ccc(OC(F)F)c(C3=CCNCCC3)c2)n1 | 3.25 nM | 14.7 nM |  |
| CNc1cc(C)nc(Nc2ccc(OC)c(C3CCN(C)CC3)c2)n1 | 588 nM |  |  |
| CCN1CC=C(c2cc(Nc3nc(C)cc(NC)n3)ccc2OC)CCC1 | 10.5 nM | 44.1 nM |  |
| CNc1cc(C)nc(Nc2ccc(OC)c(C3=CCN(C)CC3)c2)n1 | 92.9 nM | 277 nM |  |
| COc1cc2c(cc1OCCCN1CCCC1)N=C(N)C21CCC1 |  |  | Activity [20]: Active |
| CNc1cc(C)nc(Nc2ccc(OC)c(C3=CCN(C4CCC4)CCC3)c2)n1 | 145 nM | 1070 nM |  |
| CNc1cc(C)nc(Nc2ccc(OC)c(C3CCCNCC3)c2)n1 (racemic) | 28.2 nM | 342 nM |  |
| CNc1cc(C)nc(Nc2ccc(OC)c(N3CCN(C)CC3)c2)n1 | > 5000 nM |  |  |
| CNc1cc(C)nc(Nc2ccc(OC)c(C3=CCNCC3)c2)n1 | 225 nM | 1160 nM |  |
| CNc1cc(C)nc(Nc2ccc(OC)c(C3=CCN(C)C3)c2)n1 | 1490 nM | 2770 nM |  |
| CNc1cc(C)nc(Nc2ccc(C)c(C3=CCNCCC3)c2)n1 | 14.2 nM | 109 nM |  |
| CNc1cc(C)nc(Nc2ccc(OC)c(C3=CCCNCC3)c2)n1 | 83.3 nM | 479 nM |  |
